According to patent US9150617B2, “Immunoregulatory peptides and methods of use” (13 Therapeutics, Inc., priority 2009, dated 2015):
Ends that are not written are not given here.

How the values were obtained:
[1] = test system: TNF-α secretion from RAW264.7 cells; assay: Inhibition of TNF-α secretion from RAW264.7 cells stimulated with CpG-ODN (ELISA); assay type: cell-based, murine; conditions: for activity vis-à-vis P13 (inhibition of TNF-α after stimulation of RAW264.7 cells with CpG): SAR, compared with P13; for Inhibition of TNF-α secretion (percent inhibition): 4 hours (Table 3)
Procedure: (§1) RAW264.7 (murine monocyte/macrophage cells (American Type Culture Collection) were cultured at 37° C. in a 5% CO2 humidified incubator and grown in DMEM (Invitrogen Life Technologies) supplemented with 10% (v/v) heat-inactivated FCS, 1.5 mM L-glutamine, 100 U/ml penicillin, and 100 μg/ml streptomycin.
(§2) RAW264.7 cells were plated at 1.5×10^5 cells/well −3×10^5 cells/well in 48-well plates. After 24 hours, the cells were incubated with peptides at various concentrations at room temperature in triplicate either before, simultaneous with, or after activation with various PAMPs for 18 hours. Cell-free supernatants were analyzed for cytokines by ELISA, in quadruplicate. RAW264.7 cells were stimulated with either CpG-ODN (1 μg/ml or 1.25 μg/ml), LPS (about 1 ng/ml), Poly (I:C) (about 10 μg/ml), flagellin (about 5 ng/ml), or zymosan (about 10 μg/ml). Dose response curves were done with each PAMP to determine optimal stimulation concentration. For CpG-ODN stimulation, cells were incubated for 4 hours at 37° C., supernatants collected, and TNF-α measured by ELISA. Any cytokine involved in inflammatory disease mediated toll receptor signaling can be measured using similar assays.
The effect of several peptides on TNF-α secretion from RAW264.7 cells in response to stimulation by CpG-ODN was studied. Each peptide was initially tested at 3 concentrations, 37 μM, 22.2 μM, and 11.1 μM. […] The peptides were then tested at 11.1 μM, 7.4 μM, and 3.7 μM (Table 3). […] Cell viability was examined for each peptide at the concentrations tested for TNF-α inhibition.
(§3) Inhibition of TNF-α secretion by various T-peptides was examined. RAW264.7 cells were plated at 3×10^5 cells/well in 48-well plates. After 24 h the cells were incubated with peptide at various concentrations at room temperature in triplicate for 15 minutes and then stimulated with 1.25 ug/ml CpG-ODN or 1 ng/ml LPS. Cells were then incubated for 4 hours at 37° C., supernatants collected, and TNF-α measured by ELISA. Percent inhibition was calculated by comparing TNF-α secretion from cells incubated with peptide to control cells with no peptide treatment. The inhibition by peptides T3, T11, T21, T36, T37, T51 and T52 were compared to inhibition by an analogue of P13 having a sequence of nine arginine residues (SEQ ID NO: 379) at the C-terminus (P13-R^9; SEQ ID NO: 378). (Table 4).

[2] = test system: TNF-α secretion from RAW264.7 cells; assay: Inhibition of TNF-α secretion from RAW264.7 cells stimulated with LPS (ELISA); assay type: cell-based, murine; conditions: LPS Stimulation, 1 ng/ml LPS
Procedure: as §1, §2, §3

[3] = test system: middle ear inflammation in BALB/c mice; assay: Middle ear inflammation, heat-inactivated S. pneumoniae plus peptide injected into the middle ear; assay type: in vivo, mouse; conditions: heat-inactivated S. pneumoniae into middle ears of BALB/c mice
Procedure: Induction of otitis media: BALB/c (Bagg albino) mice, about 8-12 weeks of age, are anesthetized with a subcutaneous injection of xylazine & ketamine (about 0.1 mg/30 gm body weight) and their ears examined under the operating microscope to assure they are free of infection or perforation. One group of animals is injected with PBS (Phospho-buffered saline) in one ear and with about 10 μM of a peptide of Table 1 in the opposite ear, to determine the effect of peptide without added bacteria. A second group of animals receive about 5.0 μl of PBS plus heat-inactivated S. pneumoniae (about 10^9 CFU/ml) in one ear and about 5.0 μl of peptide (about 10 μM) plus heat-inactivated S. pneumoniae (about 10^9 CFU/ml) in the opposite ear. […] Inflammation is quantified by measuring 1) area of fluid present in the middle ear; 2) number of cells in middle ear fluid; and 3) thickness of the tympanic membrane (TM) taken at a point away from the injection site. Data are obtained from mice (n=18) injected with PBS alone for each of the histological parameters measured, to serve as a control group.
At the end of the experimental treatment, mice are killed and tissues collected for histology. […] This enables all histologic embedding, sectioning, staining, and analysis to be done on the two sides simultaneously to reduce any impact of processing variables on the subsequent quantitative analyses. […]

[4] = test system: toll-like receptor-dependent signaling; assay: Cytokine secretion in response to TLR activation; assay type: cell-based
Procedure: as §2

[5] = test system: LPS-induced septic shock in mice; assay: Mouse model of LPS-induced septic shock; assay type: in vivo
Procedure: BALB/c mice are injected i.p. with PBS, LPS at about 100 μg/mouse/250 μl, or about 100 μg LPS plus various doses of peptides. Serum is collected at about 2 and about 6 hours after treatment and evaluated for the pro-inflammatory cytokines MIP-2 and TNF-α by ELISA, and for soluble ICAM-1.

[6] = test system: tympanic membrane of BALB/c mice; assay: Assay for crossing the tympanic membrane by FITC-labeled peptide; assay type: in vivo, mouse; conditions: 10 μg/30 μl dropped onto ear with AOM, 10 minutes; fluorescent microscopy of middle ear fluid
Procedure: Three BALB/c mice at 8-12 weeks of age were anesthetized with ketamine (100 mg/kg) and xylazine (20 mg/kg) prior to administration of bacteria. A ventral midline incision was made in the neck, and the bulla exposed after blunt dissection. The middle ear was inoculated through the bony wall with approximately 3.5 μl of a bacterial suspension (heat inactivated S. pneumoniae 10^10 CFU/ml) with a thin needle. Both the right and left ears received bacteria by bulla injection.
After 24 hours, animals received an otoscopic exam using an operating microscope. Mice were anesthetized as described above, and the tympanic membrane was inspected for the presence or absence of the following three criteria for acute otitis media (AOM): 1) middle ear effusion behind the tympanic membrane; 2) change in color of the tympanic membrane from clear to red or white (indicating inflammation and/or purulence in the middle ear); 3) change in position of the tympanic membrane from neutral to bulging or retracted.
Four ears met the criteria for AOM. FITC labeled peptide P13-R^9 (SEQ ID NO: 378) (10 μg/30 μl) was dropped onto the middle ear. The peptide was allowed to absorb for 10 minutes. After 10 minutes, the external ear canal was flushed twice, and blotted to get rid of any remaining peptide. […]

[7] = test system: mouse middle ear; assay: Effects caused by peptide without added bacteria on mouse middle ear; assay type: in vivo; conditions: 10 μM, no bacteria, 3 days
Procedure: Induction of otitis media: BALB/c (Bagg albino) mice, about 8-12 weeks of age, are anesthetized with a subcutaneous injection of xylazine & ketamine (about 0.1 mg/30 gm body weight) and their ears examined under the operating microscope to assure they are free of infection or perforation. One group of animals is injected with PBS (Phospho-buffered saline) in one ear and with about 10 μM of a peptide of Table 1 in the opposite ear, to determine the effect of peptide without added bacteria. A second group of animals receive about 5.0 μl of PBS plus heat-inactivated S. pneumoniae (about 10^9 CFU/ml) in one ear and about 5.0 μl of peptide (about 10 μM) plus heat-inactivated S. pneumoniae (about 10^9 CFU/ml) in the opposite ear. Injections are done through the tympanic membrane. Animals are killed about 3 days after bacterial injection and tissue is histologically processed to assess middle ear disease. Inflammation is quantified by measuring 1) area of fluid present in the middle ear; 2) number of cells in middle ear fluid; and 3) thickness of the tympanic membrane (TM) taken at a point away from the injection site. Data are obtained from mice (n=18) injected with PBS alone for each of the histological parameters measured, to serve as a control group.
To determine the effect of peptide without added bacteria, animals are injected in one ear with PBS alone, and the other ear with about 10 μM peptide. Paired t-tests are done comparing the effect of PBS alone with the effect of peptide for each of the three histological parameters: 1) area of fluid present in the middle ear; 2) number of cells in middle ear fluid; and 3) thickness of the tympanic membrane. […]
Five mice were injected in one ear with PBS and in the opposite ear with 10 μM peptide P13. Three days later the animals were killed, and the middle ears embedded, sectioned, stained and evaluated for fluid area, infiltrating cell number, and thickness of the tympanic membrane. […]

[8] = 11.1 μM peptide, 1 ug/ml CpG-ODN, 4 hours (Table 2)
[9] = 22.2 μM peptide, 1 ug/ml CpG-ODN, 4 hours
[10] = 7.1 μM peptide, CpG stimulation, 1.25 ug/ml CpG-ODN
[11] = 11.1 μM peptide, CpG stimulation, 1.25 ug/ml CpG-ODN
[12] = 22 μM peptide, CpG stimulation, 1.25 ug/ml CpG-ODN

DIVKLTVYACIRRRRRRRRR [T11-R^9]
activity vis-à-vis P13 (inhibition of TNF-α after stimulation of RAW264.7 cells with CpG) [1]: superior activity | Percent Inhibition of TNF-α secretion ([2]; 7.4 uM peptide): 68% | Percent Inhibition of TNF-α secretion ([2]; 11.1 uM peptide): 81% | Percent Inhibition of TNF-α secretion ([2]; 22.2 uM peptide): 91%

FTILLEEYFMYRGLLGLRIRRRRRRRRR [Peptide 103 (S19)-R^9]
Inhibition of TNF-α secretion (percent inhibition) ([1]; 7 μM peptide, 1 ug/ml CpG-ODN): 87% | Inhibition of TNF-α secretion (percent inhibition) ([1]; 11 μM peptide, 1 ug/ml CpG-ODN): 93% | Percent Inhibition of TNF-α secretion [1, 8]: 93% | Percent Inhibition of TNF-α secretion [1, 9]: 99%

DIVKVTVYDCIRRRRRRRRR [T37-R^9]
Percent Inhibition of TNF-α secretion [1, 10]: 46% | Percent Inhibition of TNF-α secretion [1, 11]: 87% | Percent Inhibition of TNF-α secretion [1, 12]: 93% | activity vis-à-vis P13 (inhibition of TNF-α after stimulation of RAW264.7 cells with CpG) [1]: superior activity

DIVKLYVYDCIRRRRRRRRR [T21-R^9]
Percent Inhibition of TNF-α secretion [1, 10]: 69% | Percent Inhibition of TNF-α secretion [1, 11]: 90% | Percent Inhibition of TNF-α secretion [1, 12]: 98% | activity vis-à-vis P13 (inhibition of TNF-α after stimulation of RAW264.7 cells with CpG) [1]: superior activity

TILLEEYFMYRGLLGLRIRRRRRRRRR [Peptide 104 (S20)-R^9]
Inhibition of TNF-α secretion (percent inhibition) ([1]; 7 μM peptide, 1 ug/ml CpG-ODN): 60% | Inhibition of TNF-α secretion (percent inhibition) ([1]; 11 μM peptide, 1 ug/ml CpG-ODN): 74% | Percent Inhibition of TNF-α secretion [1, 8]: 74% | Percent Inhibition of TNF-α secretion [1, 9]: 93%

LLEEYFMYGLLGLRIRRRRRRRRR [Peptide 106 (S22)-R^9]
Inhibition of TNF-α secretion (percent inhibition) ([1]; 7 μM peptide, 1 ug/ml CpG-ODN): 53% | Inhibition of TNF-α secretion (percent inhibition) ([1]; 11 μM peptide, 1 ug/ml CpG-ODN): 70% | Percent Inhibition of TNF-α secretion [1, 8]: 70% | Percent Inhibition of TNF-α secretion [1, 9]: 92%

DIVKLTVYDCIRRRRRRRRR [P13-R^9]
Percent Inhibition of TNF-α secretion [1, 10]: 32% | Percent Inhibition of TNF-α secretion [1, 11]: 65% | Percent Inhibition of TNF-α secretion [1, 12]: 86% | bacterial-induced inflammatory response in the middle ear [3]: dramatically reduced | Percent Inhibition of TNF-α secretion ([2]; 7.4 uM peptide): 0% | Percent Inhibition of TNF-α secretion ([2]; 11.1 uM peptide): 13% | Percent Inhibition of TNF-α secretion ([2]; 22.2 uM peptide): 69% | cytokine secretion in response to TLR activation [4]: effectively inhibits | pro-inflammatory mediators [5]: reduce pro-inflammatory mediators

DIIKLTVYDCIRRRRRRRRR [T36-R^9]
Percent Inhibition of TNF-α secretion [1, 10]: 50% | Percent Inhibition of TNF-α secretion [1, 11]: 70% | Percent Inhibition of TNF-α secretion [1, 12]: 82% | activity vis-à-vis P13 (inhibition of TNF-α after stimulation of RAW264.7 cells with CpG) [1]: superior activity

ILLEEYFMYRGLLGLRIRRRRRRRRR [Peptide 105 (S21)-R^9]
Inhibition of TNF-α secretion (percent inhibition) ([1]; 7 μM peptide, 1 ug/ml CpG-ODN): 52% | Inhibition of TNF-α secretion (percent inhibition) ([1]; 11 μM peptide, 1 ug/ml CpG-ODN): 62% | Percent Inhibition of TNF-α secretion [1, 8]: 62% | Percent Inhibition of TNF-α secretion [1, 9]: 91%

FITC-labeled P13-R^9: FITC (Fluorescein isothiocyanate) labeled peptide P13-R^9 (SEQ ID NO: 378) (DIVKLTVYDCIRRRRRRRRR; also: FITC label)
crossing the tympanic membrane [6]: crosses the tympanic membrane and associates with cells in middle ear fluid

AIVKLTVYDCIRRRRRRRRR [T3-R^9]
Percent Inhibition of TNF-α secretion [1, 10]: 85% | Percent Inhibition of TNF-α secretion [1, 11]: 92% | Percent Inhibition of TNF-α secretion [1, 12]: 99% | activity vis-à-vis P13 (inhibition of TNF-α after stimulation of RAW264.7 cells with CpG) [1]: superior activity | Percent Inhibition of TNF-α secretion ([2]; 7.4 uM peptide): 33% | Percent Inhibition of TNF-α secretion ([2]; 11.1 uM peptide): 65% | Percent Inhibition of TNF-α secretion ([2]; 22.2 uM peptide): 77%

AIIKVYVYACIRRRRRRRRR [T52-R^9]
Percent Inhibition of TNF-α secretion [1, 10]: 97.8% | Percent Inhibition of TNF-α secretion [1, 11]: 99.2% | Percent Inhibition of TNF-α secretion [1, 12]: 100% | activity vis-à-vis P13 (inhibition of TNF-α after stimulation of RAW264.7 cells with CpG) [1]: superior activity

DIVKLTVYDCI [Peptide P13, DIVKLTVYDCI]
difference between PBS-injected ear and P13-injected ear in cell number [7]: no differences | difference between PBS-injected ear and P13-injected ear in fluid area [7]: no differences | difference between PBS-injected ear and P13-injected ear in tympanic membrane thickness [7]: no differences

AIVKLTVYACIRRRRRRRRR [T51-R^9]
Percent Inhibition of TNF-α secretion [1, 10]: 94% | Percent Inhibition of TNF-α secretion [1, 11]: 98% | Percent Inhibition of TNF-α secretion [1, 12]: 99.7% | activity vis-à-vis P13 (inhibition of TNF-α after stimulation of RAW264.7 cells with CpG) [1]: superior activity
